# In PubChem BioAssay (NCI):
# “And” between values parts separate entries of the source, which are not always exact repeats. Equal values may be shown once.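 Values below derive from 48-hour exposures of cells grown in 96-well plates, with endpoints linearly interpolated between the two concentrations bracketing the appropriate inhibition level. GI50: concentration for 50% inhibition of growth. Definition used: TGI = concentration required for complete inhibition of growth.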
# Experiments:
# Assay in all cases: inhibition of tumour cell growth, NCI panel, 48 h
# NCI-H23 lung = tested on: NCI-H23 lung
# OVCAR-5 ovarian = tested on: OVCAR-5 ovarian
# MALME-3M melanoma = tested on: MALME-3M melanoma
# CCRF-CEM leukemia = tested on: CCRF-CEM leukemia
# HT29 colon = tested on: HT29 colon
# PC-3 prostate = tested on: PC-3 prostate
# MDA-MB-231 breast = tested on: MDA-MB-231 breast
# HL-60(TB) leukemia = tested on: HL-60(TB) leukemia
# CAKI-1 renal = tested on: CAKI-1 renal
# RPMI-8226 leukemia = tested on: RPMI-8226 leukemia
Structure (SMILES),GI50 (NCI-H23 lung) [µM],TGI (NCI-H23 lung) [µM],GI50 (OVCAR-5 ovarian),TGI (OVCAR-5 ovarian) [µM],TGI (MALME-3M melanoma),GI50 (CCRF-CEM leukemia) [µM],TGI (CCRF-CEM leukemia) [µM],GI50 (HT29 colon) [µM],TGI (HT29 colon) [µM],GI50 (PC-3 prostate),TGI (PC-3 prostate) [µM],GI50 (MDA-MB-231 breast),TGI (MDA-MB-231 breast) [µM],GI50 (HL-60(TB) leukemia) [µM],TGI (HL-60(TB) leukemia) [µM],GI50 (CAKI-1 renal) [µM],TGI (CAKI-1 renal) [µM],GI50 (RPMI-8226 leukemia) [µM],TGI (RPMI-8226 leukemia) [µM],GI50 (MALME-3M melanoma) [µM]
CC[C@H](C)[C@H](NC(=O)C12CC(NC(C)=O)(C1)C2)C(=O)N(C)[C@H](C[C@@H](OC(C)=O)c1nc(C(=O)N[C@@H](Cc2ccccc2)C[C@H](C)C(=O)OC)cs1)C(C)C,0.65,> 16.7,> 3.89 µM,> 16.7,> 16.7 µM,0.273,> 16.7,0.0731,> 5.52,0.194 µM,> 16.7,0.439 µM,> 16.7,0.0522,0.21,11.2,> 16.7,0.0585,> 3.64,
COc1ccc(NC(=O)O[C@H]2[C@H](O[C@H]3[C@@H](O)COC(O[C@H]4C[C@H]5[C@@H]6CC=C7C[C@@H](O)CC[C@]7(C)[C@H]6CC[C@]5(C)[C@H]4[C@H](C)C(=O)CCC(C)C)[C@@H]3OC(C)=O)OC[C@@H](O)[C@@H]2O)cc1 (stereo not given in full),0.0284,5.03,0.169 µM,26.2,3.25 µM,< 0.01,2.25,0.0242,15.5,< 0.01 µM,4.87,0.318 µM,19.2,0.0139,28.2,< 0.01,1.01,< 0.01,0.879,0.0115
CC[C@@]1(OC(=O)CN)C(=O)OCc2c1cc1n(c2=O)Cc2cc3c(N)c4c(cc3nc2-1)OCO4,< 0.0001,,0.0065 µM and 0.0427 µM,,0.889 µM and 0.221 µM,< 0.0001,0.551,,> 100,0.0361 µM and 0.0322 µM,> 100,0.0873 µM and 0.3 µM,> 100,< 0.0001,0.111,< 0.0001,,0.00261,0.719,0.0124
CSc1ccc(C2=NN(C(=O)c3ccc(N)cc3)C(c3ccc(F)cc3)C2)cc1 (stereo not given),17.5,37.9,16.7 µM,31.2,23 µM,0.314,1.72,3.72,17.5,4.5 µM,19.1,12.6 µM,30.6,10.5,36.1,15.4,37.4,1.88,4.41,8.09
CS(=O)(=O)c1nc(Cl)c(Cl)c(C#N)c1Cl,,9,,9.41,4.45 µM,,> 100,,4.35,,11.6,,3.24,,> 100,,1.69,,14.6,
COC(=O)Nc1nc2ccc(Sc3ccccc3)cc2[nH]1,0.29,31,0.511 µM,23.4,18.8 µM,0.249,> 100,0.0494,1.29,0.214 µM,> 37.4,0.476 µM,21.5,0.0805,0.455,0.225,> 43.5,0.358,> 36.6,0.444
O=[N+]([O-])c1ccc(-c2ccccc2)c([As](=O)(O)O)c1,18.9,88.2,28.4 µM,> 100,34.6 µM,4.42,39.9,13.5,32.2,16.1 µM,> 100,10 µM,37.4,43.5,> 100,13.2,98.1,15.2,62.9,11.6
